Experimental data reported in PMC4969531, “Enhanced Absorption Study of Ginsenoside Compound K (20-O-β-(D-Glucopyranosyl)-20(S)-protopanaxadiol) after Oral Administration of Fermented Red Ginseng Extract (HYFRG™) in Healthy Korean Volunteers and Rats” (Evidence-based Complementary and Alternative Medicine : eCAM, 2016).

Key:
[1] = Stability of compound K in human plasma (bench-top, refrigerator, freezer, freeze-thaw, extracted samples); format: in vitro ADME; settings: n = 3; for Stability of extracted, autosampler (4°C), 20 h: extracted plasma sample; for Compound K in plasma, 4°C, 17 h / Compound K in plasma, room temperature, 17 h / Compound K in plasma, −80°C, 17 h / Freeze-thaw stability, three cycles, −80°C: human plasma
Experimental: The LC-MS/MS method to determine compound K in human and rat plasma was validated and established in terms of specificity, sensitivity, linearity, accuracy, precision, recovery, matrix effect, and stability according to the bioanalytical method validation guidelines published by Korea Food and Drug Administration (KFDA) and USFDA [23, 24]. The specificity of the method towards endogenous plasma matrix substances was assessed in double blank human plasma (without compound K and IS). Double blank samples from six different lots of human blank plasma were tested for the presence of endogenous substances, which may interfere with compound K and IS using described above procedures and chromatographic/spectroscopic conditions. Then, the chromatograms obtained from the sample spiked with compound K at lower limit of quantitation (LLOQ) and IS and actual plasma samples from a volunteer after oral administration of compound K were compared with those obtained from blank samples. The calibration curve was constructed by plotting the peak area ratios (y) of compound K to IS against the spiked concentrations (x) of compound K. Linearity was assessed by weighted (1/x) least squares regression analysis. LLOQ was defined as the lowest concentration on the calibration curve. It should be quantified with an acceptable bias within ±20% and a CV no greater than 20%. The LLOQ was determined as the concentrations with a signal to noise (S/N) ratio of 10. The intra- and interday precision and accuracy assessments were performed on the same day (n = 5, at each concentration) and on three consecutive days at four concentrations ([…]). Precision is expressed as a coefficient of variance (CV) at each concentration. The accuracy of the assay was defined as a percentage of the measured concentration over the theoretical concentration. The acceptance criterion recommended by KFDA and USFDA for each back-calculated standard concentration is 20% deviation from the nominal for LLOQ and 15% for all others (KFDA 2013, USFDA 2013). The relative recovery, absolute matrix effect, and process efficiency were determined at three QC concentrations (3, 300, and 800 ng/mL, n = 3) of compound K and IS (500 ng/mL, n = 9). The relative recovery was measured by comparing the peak areas obtained from plasma samples spiked before extraction with those from plasma samples spiked after extraction. The absolute matrix effect was measured by comparing the peak response of plasma samples spiked after extraction with that of pure standards containing equivalent amounts of compound K and IS prepared in mobile phase. The process efficiency wasmeasured by comparing the peak response of plasma samples spiked before extraction with that of the pure standards containing equivalent amounts of compound K and IS prepared in mobile phase. […] The predicted concentrations of compound K at 3, 300, and 800 ng/mL samples differed by not more than 15% of the nominal concentrations in a set of stability tests, namely, in injector (20 h), bench-top (17 h), three repeated freeze-thaw cycles, and freezer stability at −80°C for 17 h. […] Although several analytical methods have been used to determine compound K concentrations in human plasma with LC-MS/MS using solid phase extraction or protein precipitation, we developed the fully validated analytical method optimized for our laboratory settings to meet both KFDA and USFDA guidelines for validating a bioanalytical method. Our analytical method was successfully used to evaluate the comparative pharmacokinetics of two red ginseng HYFRG or RG extracts in Koreans.

[2] = Stability of compound K working stock solution in methanol; format: physicochemical; settings: n = 3
Experimental: Stock solutions of compound K and IS were prepared separately by dissolving the accurately weighed compounds in methanol for a final concentration of 1000 μg/mL. The prepared stock solutions were stored in −80°C when not in use. Working solutions of compound K were prepared by serial dilution of the stock solution in methanol. Calibration standards were prepared by spiking 10 μL of the appropriate standard solutions to 190 μL of blank plasma for concentrations of 1, 5, 10, 50, 100, 500, and 1000 ng/mL. QC samples were prepared in the same manner as the calibration standards, for low, middle, and high concentrations of 3, 300, and 800 ng/mL. IS working solution (5 μg/mL) for routine use was freshly prepared by diluting IS stock solution in methanol. The standard and QC samples were extracted on each analysis run using the same procedure described below. […] The specificity of the method towards endogenous plasma matrix substances was assessed in double blank human plasma (without compound K and IS). […] Then, the chromatograms obtained from the sample spiked with compound K at lower limit of quantitation (LLOQ) and IS and actual plasma samples from a volunteer after oral administration of compound K were compared with those obtained from blank samples. The calibration curve was constructed by plotting the peak area ratios (y) of compound K to IS against the spiked concentrations (x) of compound K. Linearity was assessed by weighted (1/x) least squares regression analysis. […] It should be quantified with an acceptable bias within ±20% and a CV no greater than 20%. The LLOQ was determined as the concentrations with a signal to noise (S/N) ratio of 10. […] Precision is expressed as a coefficient of variance (CV) at each concentration. The accuracy of the assay was defined as a percentage of the measured concentration over the theoretical concentration. The acceptance criterion recommended by KFDA and USFDA for each back-calculated standard concentration is 20% deviation from the nominal for LLOQ and 15% for all others (KFDA 2013, USFDA 2013). […]

- Stability of extracted, autosampler (4°C), 20 h ([1]; nominal 3 ng/mL): 110.43 ± 12.89%
- Compound K in plasma, 4°C, 17 h ([1]; nominal 3 ng/mL): 112.11 ± 5.08%
- Compound K in plasma, room temperature, 17 h ([1]; nominal 3 ng/mL): 110.12 ± 3.01%
- Compound K in plasma, −80°C, 17 h ([1]; nominal 3 ng/mL): 115.04 ± 2.66%
- Freeze-thaw stability, three cycles, −80°C ([1]; nominal 3 ng/mL): 109.09 ± 7.07%
- Stability of extracted, autosampler (4°C), 20 h ([1]; nominal 300 ng/mL): 102.96 ± 4.83%
- Compound K in plasma, 4°C, 17 h ([1]; nominal 300 ng/mL): 110.62 ± 2.31%
- Compound K in plasma, room temperature, 17 h ([1]; nominal 300 ng/mL): 106.83 ± 3.20%
- Compound K in plasma, −80°C, 17 h ([1]; nominal 300 ng/mL): 108.30 ± 1.60%
- Freeze-thaw stability, three cycles, −80°C ([1]; nominal 300 ng/mL): 109.70 ± 2.38%
- Stability of extracted, autosampler (4°C), 20 h ([1]; nominal 800 ng/mL): 103.46 ± 3.48%
- Compound K in plasma, 4°C, 17 h ([1]; nominal 800 ng/mL): 107.40 ± 2.45%
- Compound K in plasma, room temperature, 17 h ([1]; nominal 800 ng/mL): 107.54 ± 0.20%
- Compound K in plasma, −80°C, 17 h ([1]; nominal 800 ng/mL): 104.95 ± 1.42%
- Freeze-thaw stability, three cycles, −80°C ([1]; nominal 800 ng/mL): 106.13 ± 5.46%
- Working stock solution stability, room temperature, 6 h ([2]; nominal 3 ng/mL): 89.08 ± 3.89%
- Working stock solution stability, room temperature, 6 h ([2]; nominal 300 ng/mL): 89.11 ± 7.13%
- Working stock solution stability, room temperature, 6 h ([2]; nominal 800 ng/mL): 96.13 ± 7.43%
Compound: CC(C)=CCCC(C)(OC1OC(CO)C(O)C(O)C1O)C1CCC2(C)C1C(O)CC1C3(C)CCC(O)C(C)(C)C3CCC12C [Compound K, 20-O-β-(D-glucopyranosyl)-20(S)-protopanaxadiol]
